In patent publication US10301286B2, “Piperazine derivative” (Astellas Pharma Inc., priority 2015, dated 2019) one finds EC50 and erection-inducing effect data, which are given here for 27 molecules.

In one data set the target is human MC1 receptor (Homo sapiens (Human), UniProt Q01726). The data set is described as follows: Human MC receptor activation, cAMP production in cells expressing human MC1 receptor. To be noted: FreeStyle 293-F cells transiently expressing human MC1 receptor, α-MSH maximum = 100%. It is filed as cell-based. The text has this:
(§1) (1) Construction of Human MC Receptor-Expressing Vector
(§2) A human MC4 receptor gene (GenBank Accession No.: NM_005912.2), a human MC1 receptor gene (GenBank Accession No.: NM_002386.3), or a human MC3 receptor gene (GenBank Accession No.: NM_019888.3) was introduced into an expression vector pcDNA™ 3.1/V5-His TOPO (registered trademark) (Thermo Fisher Scientific Inc.).
(§3) (2) Construction of Cells Transiently Expressing Human MC Receptor
(§4) An expression vector for a human MC4, MC1, or MC3 receptor was introduced into FreeStyle™ 293-F cell (Thermo Fisher Scientific Inc., product number: R790-07). For the introduction, electroporation was employed. That is, 1×10^7 FreeStyle™ 293-F cell were suspended in 80 μL of an electroporation buffer (Thermo Fisher Scientific Inc., product number: B201-100), and 20 μg of the expression vector was added thereto. The resultant was put into a cuvette (OC-100 Processing Assembly, MaxCyte, Inc.) and electroporated with MaxCyte SIX (registered trademark) (MaxCyte, Inc.). The cells were cultured over one day, suspended in a Cell Banker (registered trademark) 1 (JUJI FIELD Inc.), product number: BLC-1), and stored frozen until their use.
(§5) (3) Measurement of Amount of cAMP Produced
(§6) Measurement was carried out by using a LANCE (registered trademark) Ultra cAMP Kit (PerkinElmer, Inc.) in accordance with the attached instructions. That is, after dissolution in DMSO, the test compound (a final concentration of 1 pM to 30 μM) diluted with an assay buffer (Hank's balanced salt solution, 5 mM 4-(2-hydroxyethyl)-1-piperazineethanesulfonic acid (HEPES), 0.5 mM 3-isobutyl-1-methylxanthine (IBMX), 0.1% bovine serum albumin, pH 7.4), or α-MSH (Bachem Inc., a final concentration of 1 pM to 30 μM) was added to OptiPlate-384 (PerkinElmer, Inc.). Furthermore, a suspension of cells transiently expressing the human MC4, MC1, or MC3 receptor prepared by using the assay buffer was added thereto at 1,000 cells/well, followed by being left to stand at room temperature for about 1 hour. Thereafter, an Eu-cAMP tracer solution and an ULight™-anti-cAMP solution were added thereto, followed by being left to stand at room temperature for about 1 hour. The amount of cAMP was calculated using EnVision (registered trademark) (PerkinElmer Inc.).
(§7) For the agonistic activity, an efficacy (EC50 (μM)) was calculated by a non-linear regression method with a Sigmoid-Emax model, by defining the maximum reaction with α-MSH as 100% and the reaction with the vehicle alone as 0%, respectively.
In general terms: Cyclic AMP is a second messenger, typically raised through Gs and lowered through Gi signalling.

The target in another data set is human MC4 receptor (Homo sapiens (Human), UniProt P32245). Kind of data set: Human MC receptor activation, cAMP production in cells expressing human MC4 receptor. It is filed as cell-based. To be noted: FreeStyle 293-F cells transiently expressing human MC4 receptor, α-MSH maximum = 100%.
Text: as §1, §2, §3, §4, §5, §6, §7

For another data set, the target named is human MC3 receptor (Homo sapiens (Human), UniProt P41968). The data set is described as follows: Human MC receptor activation, cAMP production in cells expressing human MC3 receptor. It is filed as cell-based. To be noted: FreeStyle 293-F cells transiently expressing human MC3 receptor, α-MSH maximum = 100%.
Text: as §1, §2, §3, §4, §5, §6, §7

In a further data set the test system is Male SD rats. Kind of data set: Rat erection-inducing action. It counts as in vivo. The conditions noted are these: 10 mg/kg intravenously, erections up to one hour after administration, vs vehicle, P<0.05. As to the method: Male SD rats (Charles River Laboratories Japan, Inc.) were used. A test compound (10 mg/kg) or the vehicle (20% dimethyl acetamide, 10% Cremophor (registered trademark), 70% physiological saline) was administered intravenously through the tail vein. After administration, the rats were transferred to transparent observation cages made of plastic to measure the erection times of up to one hour after administration. The measurements were carried out for five groups (3 to 7 animals per group): vehicle groups, Example compound groups (Ex 87, 88, and 89), and THIQ group, which had been known as an MC4 receptor agonist (J. Med. Chem., 45, 4589-4593 (2002)), as a positive control. For a statistical significance test, Dunnett's multiple comparison test was used for the comparison with vehicle control group, and it was determined whether there was an erection-inducing effect with a statistically significant difference (P<0.05).

Where a name gives a salt, the structure may show the parent alone. Bounds are passed on as bounds.

human MC1 receptor, sequence (Q01726 whole entry): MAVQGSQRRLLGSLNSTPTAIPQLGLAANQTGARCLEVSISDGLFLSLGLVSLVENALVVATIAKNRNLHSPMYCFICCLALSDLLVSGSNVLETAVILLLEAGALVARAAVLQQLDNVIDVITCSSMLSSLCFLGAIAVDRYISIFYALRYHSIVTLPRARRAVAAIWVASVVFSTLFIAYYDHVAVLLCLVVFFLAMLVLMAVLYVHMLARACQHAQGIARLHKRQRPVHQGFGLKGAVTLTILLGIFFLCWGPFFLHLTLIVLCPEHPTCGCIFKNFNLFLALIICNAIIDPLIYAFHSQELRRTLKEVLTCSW
human MC4 receptor, sequence (P32245 whole entry): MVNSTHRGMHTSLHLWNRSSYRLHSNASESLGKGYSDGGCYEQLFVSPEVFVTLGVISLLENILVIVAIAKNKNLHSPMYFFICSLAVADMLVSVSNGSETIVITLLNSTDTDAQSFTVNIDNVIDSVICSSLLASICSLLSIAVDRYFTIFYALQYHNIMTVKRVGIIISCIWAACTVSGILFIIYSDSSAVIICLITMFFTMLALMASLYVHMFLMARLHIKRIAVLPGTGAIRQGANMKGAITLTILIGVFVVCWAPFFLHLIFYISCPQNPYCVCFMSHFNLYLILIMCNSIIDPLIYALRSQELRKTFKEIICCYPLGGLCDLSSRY
human MC3 receptor, sequence (P41968 whole entry): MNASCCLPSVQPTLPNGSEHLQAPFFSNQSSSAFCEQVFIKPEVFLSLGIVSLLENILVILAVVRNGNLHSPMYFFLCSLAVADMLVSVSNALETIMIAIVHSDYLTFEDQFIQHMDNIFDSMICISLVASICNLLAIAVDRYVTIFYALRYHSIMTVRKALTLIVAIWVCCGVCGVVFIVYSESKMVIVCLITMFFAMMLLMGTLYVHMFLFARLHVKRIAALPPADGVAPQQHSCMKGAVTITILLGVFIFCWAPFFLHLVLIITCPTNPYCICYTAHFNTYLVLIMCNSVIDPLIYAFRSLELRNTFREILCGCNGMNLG

`C[C@H]1CN([C@@H](Cc2ccc3c(c2)CCC3)C(=O)O)CCN1C(=O)C1CN(C(C)(C)C)CC1c1ccc(C#N)cc1F` (stereo partly drawn) [Example 47]: the EC50 (usually the concentration at which the effect is half-maximal) was more than 30 µM at human MC1 receptor, 0.062 µM on human MC4 receptor and 11 µM at human MC3 receptor.

With `COc1ccc(C[C@@H](C(=O)O)N2CCN(C(=O)[C@@H]3CN(C(C)(C)C)C[C@H]3c3ccc(Cl)cc3F)[C@@H](C)C2)c(F)c1` [Example 69], the figures for the concentration for a half-maximal effect (EC50) on human MC1 receptor, at human MC4 receptor and on human MC3 receptor were 0.72 µM, 0.0051 µM and 2.9 µM, respectively.

Turning to `CN(C)CC[C@H]1CN([C@@H](Cc2ccc3ccccc3c2)C(=O)O)CCN1C(=O)[C@@H]1CN(c2ccc(=O)n(C)n2)C[C@H]1c1ccc(F)cc1F` [Example 24], the concentration for a half-maximal effect (EC50) came out at 15 µM at human MC1 receptor, 0.0032 µM on human MC4 receptor and 0.58 µM on human MC3 receptor.

For the molecule `Cc1ccc(C[C@@H](C(=O)O)N2CCN(C(=O)C3CN(C4(C)CCOCC4)CC3c3ccc(F)cc3F)[C@@H](C)C2)c(F)c1` (stereo partly drawn) [Example 84], the EC50 at human MC4 receptor was 0.018 µM.

Take `C[C@@H]1CN([C@@H](Cc2ccc3ccccc3c2)C(=O)O)C[C@H](C)N1C(=O)[C@@H]1CN(C(C)(C)C)C[C@H]1c1ccc(F)cc1F` [Example 6, (2S)-2-[(3R,5S)-4-{[(3S,4R)-1-tert-butyl-4-(2,4-difluorophenyl)pyrrolidin-3-yl]carbonyl}-3,5-dimethylpiperazin-1-yl]-3-(2-naphthyl)propanoic acid dihydrochloride]: the 50% effective concentration (EC50) is 6.4 µM on human MC1 receptor, 0.48 µM at human MC4 receptor and more than 30 µM on human MC3 receptor.

For the molecule `C[C@H]1CN([C@@H](CC2CCCCC2)C(=O)O)CCN1C(=O)[C@@H]1CN(C(C)(C)C)C[C@H]1c1ccc(Cl)cc1F` [Example 57], the concentration for a half-maximal effect (EC50) is 1.9 µM at human MC1 receptor, 0.12 µM on human MC4 receptor and 2.4 µM on human MC3 receptor.

The molecule `CC(C)(C)N1C[C@@H](C(=O)N2CCN([C@@H](Cc3ccc4ccccc4c3)C(=O)O)CC23CC3)[C@H](c2ccc(F)cc2F)C1` [Example 17] had a 50% effective concentration (EC50) on human MC4 receptor of 2.4 µM.

Consider `C[C@H]1CN([C@@H](Cc2ccc(OC(F)F)cc2)C(=O)O)CCN1C(=O)[C@@H]1CN(C(C)(C)C)C[C@H]1c1ccc(Cl)cc1F` [Example 72], for which the EC50 was 2.1 µM at human MC1 receptor, 0.04 µM at human MC4 receptor and 5.3 µM on human MC3 receptor.

Molecule `C[C@H]1CN([C@@H](Cc2ccc3c(c2)CCC3)C(=O)O)CCN1C(=O)C1CN(C(C)(C)C)CC1c1ccc2c(c1)CCC2` (stereo partly drawn) [Example 83] gave a 50% effective concentration (EC50) at human MC4 receptor of 0.19 µM.

Turning to `C[C@H]1CN([C@@H](Cc2c[nH]c3ccccc23)C(=O)O)CCN1C(=O)[C@@H]1CN(C(C)(C)C)C[C@H]1c1ccc(F)cc1F` [Example 53], the response on human MC4 receptor was half-maximal at 0.19 µM (EC50).

Turning to `C[C@@H]1CN(C(=O)[C@@H]2CN(C(C)(C)C)C[C@H]2c2ccc(F)cc2F)CCN1C(Cc1ccc(Cl)c(Cl)c1)C(=O)O` (stereo partly drawn) [Example 15], the EC50 on human MC4 receptor worked out at 0.49 µM.

`Cc1ccc([C@H](C)[C@@H](C(=O)O)N2CCN(C(=O)[C@@H]3CN(C4CCOCC4)C[C@H]3c3ccc(Cl)cc3F)[C@@H](C)C2)cc1` [Example 78]: the EC50 turned out to be 1 µM on human MC1 receptor, 0.016 µM on human MC4 receptor and 0.68 µM on human MC3 receptor.

`CC(C)(C)N1C[C@@H](C(=O)N2CCN([C@@H](Cc3ccc4c(c3)CCC4)C(=O)O)C[C@@H]2CC2CC2)[C@H](c2ccc(F)cc2F)C1` [Example 36] had a half-maximal effective concentration (EC50) at human MC4 receptor of 0.0019 µM.

`COC[C@H]1CN([C@@H](Cc2ccc3c(c2)CCC3)C(=O)O)CCN1C(=O)[C@@H]1CN(c2ccc(F)cc2)C[C@H]1c1ccc(F)cc1F` [Example 27] displayed a 50% effective concentration (EC50) on human MC4 receptor of 1 µM.

Turning to `C[C@H]1CN([C@@H](Cc2ccc3c(c2)CCC3)C(=O)O)CCN1C(=O)C1CN(C(C)(C)C)CC1c1ccc(Cl)s1` (stereo partly drawn) [Example 55], a half-maximal response at human MC4 receptor (EC50) required 0.27 µM.

On human MC4 receptor, `C[C@H]1CN([C@@H](Cc2ccc(C#N)cc2)C(=O)O)CCN1C(=O)[C@@H]1CN(C(C)(C)C)C[C@H]1c1ccc(F)cc1F` [Example 21] returned an EC50 of 1.7 µM.

With `CC[C@H]1CN([C@@H](Cc2ccc3ccccc3c2)C(=O)O)CCN1C(=O)[C@@H]1CN(C(C)=O)C[C@H]1c1ccc(F)cc1F` [Example 50], a half-maximal effect on human MC4 receptor (EC50) was put at 0.064 µM.

As for `O=C(N[C@H](Cc1ccc(Cl)cc1)C(=O)N1CCC(Cn2cncn2)(C2CCCCC2)CC1)[C@H]1Cc2ccccc2CN1` [THIQ, reference compound], the erection-inducing effect result in the data set with Male SD rats is reported as “exhibited a significant erection-inducing effect”.

As to `Cc1ccc(C[C@@](C)(C(=O)O)N2CCN(C(=O)[C@@H]3CN(C4CCOCC4)C[C@H]3c3ccc(F)cc3F)[C@@H](C)C2)c(F)c1` [Example 74], the EC50 on human MC1 receptor came to 1.4 µM; on human MC4 receptor it was 0.03 µM; at human MC3 receptor, 1 µM.

As to `C[C@H]1CN([C@@H](Cc2ccc(C3CC3)cc2F)C(=O)O)CCN1C(=O)[C@@H]1CN(C2CCOCC2)C[C@H]1c1ccc(Cl)cc1F` [Example 92], the EC50 on human MC1 receptor amounted to 1.7 µM; on human MC4 receptor, 0.012 µM; on human MC3 receptor it was 1.8 µM.

For `C[C@H]1CN([C@@H](Cc2ccc3c(c2)CCC3)C(=O)O)CCN1C(=O)[C@@H]1CN(C(C)(C)CO)C[C@H]1c1ccc(F)cc1F` [Example 28], the 50% effective concentration (EC50) at human MC1 receptor was 3.9 µM; at human MC4 receptor, 0.15 µM; at human MC3 receptor, 10 µM.

As for `C[C@H]1CN([C@@H](Cc2ccc3c(c2)CCC3)C(=O)O)CCN1C(=O)[C@@H]1CN(c2ccc(C(F)(F)F)nn2)C[C@H]1c1ccc(F)cc1F` [Example 33], the 50% effective concentration (EC50) on human MC4 receptor came to 0.61 µM.

For the molecule `C[C@H]1CN([C@@H](Cc2ccc(C(F)(F)F)cc2)C(=O)O)CCN1C(=O)[C@@H]1CN(C(C)(C)C)C[C@H]1c1ccc(F)cc1F` [Example 13], the figures for the EC50 on human MC4 receptor and on human MC3 receptor were 0.048 µM and 5 µM, respectively.

On human MC4 receptor, `C[C@H]1CN([C@@H](Cc2ccc3c(c2)CCC3)C(=O)O)CCN1C(=O)[C@@H]1CN(C2(C)CC2)C[C@H]1c1ccc(Cl)cc1F` [Example 68] had a half-maximal effective concentration (EC50) of 0.53 µM.

Molecule `COc1ccc(C2CN(C(C)(C)C)CC2C(=O)N2CCN([C@@H](Cc3ccc4c(c3)CCC4)C(=O)O)C[C@@H]2C)cc1` (stereo partly drawn) [Example 45] displayed an EC50 on human MC4 receptor of 1.1 µM.

The molecule `C[C@@H]1CN(C(=O)[C@@H]2CN(C(C)(C)C)C[C@H]2c2ccc(F)cc2F)CCN1C(Cc1ccc(Cl)c(Cl)c1)C(=O)O` (stereo partly drawn) [Example 16] displayed an EC50 at human MC4 receptor of 4.9 µM.

Take `C[C@H]1CN([C@@H](Cc2ccc3c(c2)CCC3)C(=O)O)CCN1C(=O)[C@@H]1CN(C(=O)C2CC2)C[C@H]1c1ccc(F)cc1F` [Example 35]: at human MC4 receptor, the concentration for a half-maximal effect (EC50) amounted to 0.14 µM.
